Assay results: patent US5034309A, “Naphthalocyanine derivatives and their use in optical recording medium” (Hitachi Chemical Co., Ltd., priority 1987, dated 1991)

Assays:
[1] = electronic spectra in various solvents; type: physicochemical
Description: Bis(tri-n-propylsiloxy)silicon-tetra(ndodecylthio)n-aphthalocyanine [illustrative compound (100)] was dissolved in various solvents and its electronic spectra were measured. The electronic spectra in chloroform, tetrahydrofuran, acetone, toluene and hexane are shown in […], FIG. 35, FIG. 36, FIG. 37 and FIG. 38, respectively.
Vanadyl-tetra(t-butyl)-naphthalocyanine synthesized according to the method described in Zhurnal Obshchei Khimii, vol. 42, p. 696 (1972) was dissolved in each of chloroform and benzene and its electronic spectra were measured. The electronic spectra in chloroform and benzene are shown in FIG. 41 and FIG. 42, respectively.

[2] = transmission and 5° regular-reflection spectra of spin-coated organic film on glass plate; type: physicochemical; conditions: 2 parts in 98 parts 1,1,2-trichloroethane
Description: A solution composed of 2 parts by weight of bis(tri-n-propylsiloxy)silicon-tetra(n-dodecylthio)naphthalocyanine [illustrative compound (100)] and 98 parts by weight of 1,1,2-trichloroethane was coated on a glass plate by a spin coating method and dried at about 80° C. for about 15 minutes to form an organic film. Transmission spectrum and 5° regular-reflection spectrum of the organic film of the illustrative compound are shown in FIG. 39 and FIG. 40, respectively.
An organic film of the same vanadyl-tetra(t-butyl) naphthalocyanine as used in Comparative Example 1 was formed on a glass plate in the same manner as in Test Example 2, and transmission spectrum (FIG. 43) and 5° regular-reflection spectrum (FIG. 44) of the organic film were measured.
A solution composed of 1 part by weight of each of the naphthalocyanine derivatives (127), (99) and (102) exemplified and 99 parts by weight of tetrahydrofuran was coated on a glass plate by a spin coating method and dried at about 80° C. for about 15 minutes to form an organic film. Transmission spectra and 5° regular-reflection spectra of the thus formed organic films of the naphthalocyanine derivatives are summarized in FIG. 45 and FIG. 46, respectively.

## Vanadyl-tetra(t-butyl)-naphthalocyanine
[1]; electronic spectra in chloroform and benzene
  change of absorption with concentration: The higher the concentration, the weaker the absorption near 800 nm and the stronger the absorption at 720 to 730 nm
[1]; electronic spectra in solution
  dependence of absorption waveform on kind of solvent and concentration: varied depending on the kind of solvent and the conventration of solution
[2]
  light-absorbing ability in the diode laser region (780 to 830 nm): did not have very high light-absorbing ability
  reflectivity in the diode laser region (780 to 830 nm): ≤ 20%
